Laboratory results taken from article PMC4215638, “J-147 a Novel Hydrazide Lead Compound to Treat Neurodegeneration: CeeTox™ Safety and Genotoxicity Analysis” (Journal of neurology & neurophysiology, 2013).

Experiment: Microsomal metabolic stability
Assay type: in vitro ADME
Details: 30 minutes at 37°C, rat microsomes
Experimental: Metabolic stability was conducted using pooled microsomes from non-induced male Sprague-Dawley rats. J-147 was incubated for 30 minutes at 37°C at concentrations of 1 μM. Subsequent HPLC analysis using a Waters Alliance 2795 in combination with a Waters Quattro Premier mass spectrometer measured disappearance of the parent molecule. The compounds were run on a Waters X-BridgeC18 (186003021) 50 × 2.1 mm column with 3.5 micron particle packing at a flow rate of 1 ml/min and with the temperature maintained at 50°C. Solvent A was water with 0.1% formic acid. Solvent B was acetonitrile with 0.07% formic acid. The data for 3 replicates are expressed as percent of parent remaining.

In the case of `Cc1ncc2n1-c1ccc(Cl)cc1C(c1ccccc1F)=NC2` [Midazolam, reference compound], the “Metabolism Ranking” value (1 μM) is reported as “High (<45=high)” and the remaining at 0.5 h, 1 μM (male, Sprague-Dawley, pooled microsomes from non-induced rats, percent of parent remaining) is reported as 0 to 3%.
